Experimental data as given in a melting point compilation (Tetko et al.; mined from patent text by program, amines drawn as free bases though some values may be those of a salt).

Structure (SMILES)	melting point [°C]
O=C(O)COc1cccc2c1OCc1sc(SCC(c3ccccc3)c3ccccc3)nc1-2	182 to 184
COc1cccc(OC)c1C1(O)C(=O)Nc2ccc(Cl)cc21 (centres undefined)	182
O=S1(=O)c2cccc3cccc(c23)N1CCN1CCC(CC2C=Cc3ccccc32)CC1 (centres undefined)	166
CC(C)(C)ONC(=O)c1ccc(Cc2ccc(N)cc2)cc1	110 to 118
O=C(CSCCCCCCO)c1ccc2[nH]c(=O)[nH]c2c1	180 to 181
COc1cc(C(=O)CCc2ccccc2)c2c(c1OC)C(=O)CC2	144 to 146
CCCCCCCCCCCCSC(C)(C)C=NNC(=O)CCc1cc(C(C)(C)C)c(O)c(C(C)(C)C)c1	53 to 57
CCc1cc(C(=O)c2ccccc2Cl)c(-n2c(CNC(=O)c3ccc(Cl)c(Cl)c3)nnc2C(F)(F)F)s1	75 to 80
CCOC(=O)c1ccc(NC(=O)CCc2ccc3ccccc3c2)cc1	119 to 121
CC(C)COC1=C(Cc2ccc(Cl)cc2)C(=O)CC(C)(C)C1	60 to 61
Cn1cncc1C(O)(c1ccc(Cl)cc1)c1ccc2c(c1)C(c1cccc(Cl)c1)=NCC(=O)N2 (centres undefined)	200
Cc1cccc2c(=O)n(C3CCC(=O)NC3=O)cnc12 (centres undefined)	290 to 292
NC(=O)c1ccc(F)c2c1C=C([N+](=O)[O-])CO2	225 to 227
CC(C)c1cc(C(C)C)c2sc3ccccc3c(=O)c2c1	74 to 76
CN(C(=O)OC(C)(C)C)c1cc(Oc2ccc(C(F)(F)F)cc2)ccc1[N+](=O)[O-]	92 to 93
CC12C=CC(=O)C=C1C(N=[N+]=[N-])CC1C2CCC2(C)C(=O)CCC12 (centres undefined)	168 to 170
Cc1nn(-c2ccc(C(F)(F)F)cn2)cc1CO	157 to 158
COc1ccc(CCOc2ccnc(-c3cccc(C(=O)O)c3)c2)cc1OC	194 to 195
N#CCc1cccc(-c2ccc(OCCCC(=O)NO)cc2)c1	140 to 144
Cc1cc(=O)[nH]c(SCc2ccccc2N(C)C)n1	152 to 154
Cc1nc(-c2[nH]c3ccccc3c2C#N)no1	209 to 212
O=C1CCCC2=C1C(c1ccc(S(=O)(=O)c3ccccc3)cc1)C1=C(CCCC1=O)N2	260
CC(=O)OC(CN(Cc1ccccc1)Cc1ccccc1)c1cc(C#N)c2c(c1)CCN2C(C)=O (centres undefined)	108 to 109
N#Cc1ccc(-c2cn3c(C(F)(F)F)cccc3n2)cc1	> 300
COc1c2c(c(OC)c(OC)c1OC)CC(CCCCOc1ccc(C(=O)O)cc1)C2	136 to 138

Structure (SMILES)	melting point [°C]
ClCCCCCOc1ccc(C2=C(c3ccccc3)CCCc3cc(OC4CCCCO4)ccc32)cc1 (centres undefined)	99 to 101
CCOc1nnc2n1C=Cc1ccccc1C2	143 to 144
O=C(CCCCCN1CCN(c2cccc(C(F)(F)F)c2)CC1)N1Cc2ccccc2C1	100 to 105
Nc1nc2ccc(OCc3c(F)cccc3F)cc2s1	178
NS(=O)(=O)c1ccc(-c2cnn(Cc3ccccc3)c(=O)c2Cc2ccc(F)cc2)cc1	120 to 123
O=C(O)Cc1cc2c(s1)-c1ccccc1OC2C1=CCCC=C1 (centres undefined)	105 to 110
COC(=O)c1cc(C(=O)c2ccc(OC)c3ccccc23)cn1C	162
CC(C)C(CS(=O)(=O)c1ccc(-c2cccc(CNC(=O)c3nc4ccccc4c(=O)[nH]3)c2)cc1)N(O)C=O (centres undefined)	153 to 155
O=C(Nc1ncnc2c1c(Cl)cn2C1CC(O)C(CO)O1)c1ccccc1 (centres undefined)	190
O=c1c2cccnc2c(-c2cccc(Cl)c2)nn1-c1ccccc1	144 to 145
CCn1c(=O)n(C)c(=O)n(-c2cc(C(=O)OC)c(Cl)cc2F)c1=O	48 to 49
O=c1c(Br)c[nH]c2c([N+](=O)[O-])cccc12	279 to 282
CCC(=O)Nc1ccc(C2=NNC(=O)C3CC23)cc1 (centres undefined)	268 to 270
C[C@H](NC(=O)c1cccc(NS(=O)(=O)CC2CN(C(c3ccc(Cl)cc3)c3ccc(Cl)cc3)C2)c1)C(N)=O	229
CC1=C(C(=O)Nc2ccccn2)C(c2ccccc2Cl)C(C(=O)OCCCCn2c(C)nc3cnccc32)=C(c2ccc(F)cc2)N1 (centres undefined)	129 to 132
CC(=O)S[C@@H]1CCO[C@@H](c2ccccc2)O1 (relative stereo)	95 to 96
Cc1cc(-n2ccc(OCCC3CC3)cc2=O)sc1C(=O)NCc1ccccc1	134 to 136
O=c1[nH]c2ccc(Br)cc2cc1[N+](=O)[O-]	276
COC(=O)C(C)N(C(=O)CCl)c1c(C)cccc1C (centres undefined)	92 to 94
CS(=O)(=O)Nc1cc([N+](=O)[O-])ccc1F	128 to 129
COC(=O)CNC(=O)c1ccc(C(=O)NS(=O)(=O)c2ccc(OC)cc2)cn1	150 to 152
O=C(O)c1cc(-c2ncc(C(F)(F)F)cc2Cl)ccc1Cl	149 to 151
Nc1ccccc1C(=O)c1ccc(OCc2ccccc2)cc1	99 to 101
NC(=O)c1nc(Cl)n2c1CN=C(c1ccccc1Cl)c1cc(Cl)ccc1-2	285 to 288
CC(C(N)=S)C(O)(Cn1cncn1)c1ccc(F)cc1F (centres undefined)	164 to 167

Structure (SMILES)	melting point [°C]
Cc1ccc2c(NCc3ccc(NC(=O)c4ccc(F)cc4)cc3)nc(N3CCN[C@@H](C)C3)nc2c1	200 to 202
Cc1ccc(NS(=O)(=O)c2ccc(-c3cnc4[nH]c(CCC5CCCCC(=S)N5)nc4c3)cc2)c(F)c1 (centres undefined)	271
COc1cc(COc2cc(CO)n(-c3ccccc3)n2)ccc1OCc1nc(-c2ccco2)oc1C	106 to 107
C#Cc1ccc2c(c1)C(c1ccccc1F)=NCc1c(C(=O)NC)ncn1-2	235 to 236
CCOC(=O)CNC(=O)c1nc2ccc(NCCCN3CCC(OC(c4ccccc4)c4ccccc4)CC3)nn2c1C	158 to 160
CCOC(=O)C1=C(C)NC(O)(c2cccc(Cl)c2)C(C(=O)OCC)C1c1cccc([N+](=O)[O-])c1 (centres undefined)	212 to 214
CCc1nc2c(N)nc3cc(CCC(=O)N(C)C)ccc3c2n1CC1CCOCC1	219 to 220
Nc1ccn(-c2cccc(Cl)c2)n1	106 to 107
Clc1cc(-c2ccccc2)ncn1	95 to 98
CC(C)CN(C(=O)N(CCCl)N=O)C1O[C@H](CO)[C@H](O)[C@H](O)[C@H]1O (some centres undefined)	48 to 53
COc1ccc(S(=O)(=O)NC(C)c2ccccc2-c2ccc(F)cc2F)cc1 (centres undefined)	154 to 155
O=C(c1cccs1)N1CCN(c2c([N+](=O)[O-])c(=O)n(Cc3ccccc3)c3ncccc23)CC1	255
Cc1ccc([C@@H]2c3c(C)c(N4CCC(c5ccc(F)cc5)CC4)c(C)c(C)c3OC2(C)C)cc1	141 to 144
CCSc1nc2cc(Cl)ccc2s1	49 to 50
O=C(c1ccc(Cl)cc1)c1ccc(-n2ccnc2)nc1	155 to 156
CNC(=O)C1Cc2c(nc(C)n2C)C2=C1C(=O)CC1(Cc3ccccc3C1)N2 (centres undefined)	93 to 94
COc1ccc([C@@H]2CN(C)CC[C@@H]2NC(=O)c2ccc(C)cc2)cc1OC (relative stereo)	145 to 146
CNC(=O)CCn1cnc2c(N)nc3ccccc3c21	> 260
O=Cc1ccc(OC2CCCC2)c2oc3ccc([N+](=O)[O-])cc3c12	230 to 240
CC(O)c1ccccc1N (centres undefined)	50 to 52
CCN(CCNC(=O)Nc1cc(Cl)ccc1CCc1cc(C(C)(C)C)c(O)c(C(C)(C)C)c1)Cc1ccccc1	132 to 133
O=c1[nH]nc(CCCN2CCN(c3cccc(Cl)c3)CC2)n1CCOc1ccccc1	150 to 153
CC(C)c1cccc(S(=O)(=O)n2c(CCCCC(=O)O)cc3cc(C(F)(F)F)ccc32)c1	119
CN(C)C(=O)CCCOC(=O)C(C)(OCc1ccc2ccccc2c1)C(F)(F)F (centres undefined)	42 to 43
CCOC(=O)c1cc2n(n1)CCCO2	44 to 46

Structure (SMILES)	melting point [°C]
N#Cc1cccc(-c2nc(-c3cccnc3)no2)n1	201 to 203
Cc1ccc(C23CNCC2CC3=O)cc1 (centres undefined)	130 to 133
CCN(CC)c1ccc(C=C2Cc3ccccc3C2=O)c(C)c1	134
Cc1c(C(=O)O)ccc(S(C)(=O)=O)c1-c1ccc(S(C)(=O)=O)cc1	214 to 215
COC(=O)c1[nH]c(C)c(C)c1OCC1CO1 (centres undefined)	85 to 87
C=CC(C)(C)C(O)C(Oc1ccc(Cl)cc1)n1ccnc1 (centres undefined)	88 to 90
CCN(CC)CC(C)N1c2ccccc2Sc2ccc(C(N)=S)cc21 (centres undefined)	180
Cc1cccc2cc(C3CCN(C)CC3)[nH]c(=O)c12	200 to 202
COc1ccc(Oc2cccc(-c3nnc(Nc4ccc(Cl)c(Cl)c4)s3)c2)cc1	198 to 199
C=CC[C@H](C(N)=O)[C@@H](CC(C)C)C(=O)NC1N=C(N2CCCCC2)c2ccccc2N(C)C1=O (some centres undefined)	231 to 238
Cc1nn(C)c(C)c1NC1=NCCO1	131 to 132
Nc1ccccc1C(=O)Nc1nnn[nH]1	253 to 254
O=C(O)CC1=CCCCC1n1nc(-c2c(-c3ccccc3)nn3ccccc23)ccc1=O (centres undefined)	164 to 166
CN1Cc2c(cc3ccc4c(c3c2-c2ccc3c(c2)OCO3)OCO4)C1=O	234 to 236
CCSc1ncnc2c(N3CCCCC3)nc(Cl)nc12	110 to 111
Cc1nc2ccccc2c(=O)n1-c1nnn[nH]1	225 to 226
CCCP(=O)(O)CCCN	210 to 213
COc1cc2[nH]c(=O)nc(C)c2c(OC)c1OC	229 to 230
CC1(C)OCC(Cc2ccc(C=Cc3ccc([N+](=O)[O-])cc3)cc2)O1 (centres undefined)	146 to 147
Cn1c(CO)nc2cccnc21	229 to 231
Cc1ccc(CC2CCN(C(=O)C(=O)Nc3ccc4c(c3)CS(=O)(=O)N4)CC2)cc1	186
O=Cc1cccc(OCCc2coc(-c3ccccc3)n2)c1	51 to 53
CC(=O)Nc1ccc(OC(=O)c2ccc(COC(=O)OC(C)O[N+](=O)[O-])cc2)cc1 (centres undefined)	149 to 152
CC(=O)SCCC(=O)N1C(C(=O)O)CC2CCCCC21 (centres undefined)	131 to 133
